Measurements from patent US8975234B2, “Anti-bacterial infection, inflammation, and leukemia composition and use thereof” (priority 2011, dated 2015).

What was measured:
[1] = system: MRSA 18271; experiment: Minimum inhibitory concentration (broth microdilution) and FIC index; type: cell-based, Staphylococcus aureus; details: Staphylococcus aureus, MRSA, read-out: Minimum inhibitory concentration
Protocol: (§1) A serial of twofold dilution of the tested antibiotics (oxacillin, erythromycin, ampicillin, kanamycin, levofoxacin, vancomycin and doxycycline) was perform by Broth microdilution method to a final concentration of 2-512 μg/mL. The bacterial overnight culture was collected and re-suspended in the Muller-Hilton (M-H) broth. An aliquot of cell suspension (OD600=0.1) was prepared. The bacterial suspensions were plated in 96-well plate and incubated with test antibiotics at 37° C. in a 5% CO2 incubator (Table 1 to Table 4).
(§2) The […], […] and antagonism between two drugs was evaluated by the following formula:
(§3) [formula] The criteria of fractional inhibitory concentration index: […]

[2] = system: MRSA 18631; experiment: as above; type: cell-based, Staphylococcus aureus; details: Staphylococcus aureus, MRSA, read-out: Minimum inhibitory concentration
Protocol: as §1, §2, §3

[3] = system: MRSA 19615; experiment: as above; type: cell-based, Staphylococcus aureus; details: Staphylococcus aureus, MRSA, read-out: Minimum inhibitory concentration
Protocol: as §1, §2, §3

[4] = system: bacteria; experiment: Transmission electron microscopy of treated bacteria; type: cell-based; details: 40 μg/mL; cultured for 10 minutes; compared with control group
Protocol: Before observed by TEM, the bacteria were cultured overnight on plate, collected and suspended in either 10 mL MHB or 10 mL MHB containing 40 μg/mL Tellimagrandin II. The bacterial solution were diluted to an optical density at 600 nm (OD600) of 0.1, and cultured for 10 minutes or 24 hours. Then, the cells were centrifuged at 10,000 rpm/min and suspended in the fixing fluid, the fixed time can not exceed 24 hours. The sample for TEM was sent to departments of Laboratory Medicine and Clinical Research, Kaohsiung Medical University Hospital (Kaohsiung, Taiwan, ROC).

[5] = system: Staphylococcus aureus biofilm formation; experiment: Biofilm formation; type: cell-based; details: 40 μg/mL Tellimagrandin II
Protocol: Bacteria was grown overnight (16˜18 hours) on agar plate. Then, collected and re-suspended in 0.45% sterile PBS and diluted in sterile PBS to final optical density at 600 nm (OD600) of 0.1. Polystyrene 96-well microtitre plates were filled with 150 μL of culture medium and 20 μL of bacterial solution per well. The cultures were allowed to stand at 37° C. for 18 hours. After the incubation period, cultures were removed, and microtitre plate wells were gently washed three times with 300 μL of sterile PBS to remove loosely associated bacteria, then dried at 60° C. oven for 1 hour. Samples were stained by the addition of the 2% dye solution (150 μL) to each well above the initial inoculation level and incubated for 15 minutes. The plate was then washed in fresh water. The intensity of staining was measured after the addition of 95% alcohol (150 μL) to each dry well. The samples were incubated at room temperature for 30 min, after which the OD517 values were measured on a plate reader.
Optical density cut-off value (ODc)=average OD of negative control+3× standard deviation (SD) of negative control (The interpretation of biofilm production was done according to the criteria of Srdjan et al. (APMIS 115: 891-9, 2007). MRSA 17199 were used as control strain.

[6] = system: Heme oxygenase-1 (HO-1) in RAW264.7 cells; experiment: Western blot analysis of Heme oxygenase-1 (HO-1); type: cell-based, mouse; details: 25 or 50 μM with LPS, 24 hours
Protocol: The murine macrophage RAW264.7 cells were plated in 6 cm cell dishes at a seeding density of 5×10^6 cells/mL and incubated overnight. After overnight incubation, cells were treated with different concentrations of Tellimagrandin II (10, 25 and 50 μM) and LPS and incubated for 24 hours. Cells were washed twice with PBS, scraped and lysed on ice in RIPA buffer, and proteins were obtained. Heme oxygenase-1 expression was analyzed by Western blotting of the whole cell lysates. […] In FIG. 12, the first bar represents the control group, the second bar represents the test group with LPS only and the third, the fourth and fifth bars represent the test groups with 10, 25 and 50 […] Tellimagrandin II (N=3, Mean±SD).

[7] = system: K-562 cells; experiment: DNA ladder test; type: cell-based, human; details: 48 hours, different concentrations
Protocol: K-562 cells treated with Tellimagrandin II were collected for electrophoresis to identify any DNA fragmentation.
A total of 3 mL cell solution at the concentration of 1×10^6 K-562 cells per mL was cultured with 6 cm cell culture plates in an incubator supplied with 5% CO2 at 37° C. for 30 minutes so that cells could adapt to the environment. Tellimagrandin II solutions of different concentrations were added by order so that the final concentrations are 0, 20, 30, 40, 50 and 60 μM respectively. The solution was placed in incubator with 5% CO2 at 37° C. for 48 hours before being centrifuged at 2,500 rpm at 4° C. for 5 minutes. After removing the supernatant, it's rinsed by PBS once. Then, cell lysis buffer 100 μL (1% NP-40 dissolved in […], pH 8.0) was added and the solution was shaken at high speed for 10 seconds.
The solution was centrifuged at 3,500 rpm for 5 minutes before 90 μL supernatant was collected and mixed properly with SDS solution 10 μL. RNase A (4 mg/mL) 50 μL was added into the mixed solution then placed in water bath at 56° C. for one hour to remove RNA. Proteinase K (10 mg/mL) 30 μL was then added before another one hour in the water bath at 56° C. to remove protein. […]

`O=C(OC1O[C@@H]2COC(=O)c3cc(O)c(O)c(O)c3-c3c(cc(O)c(O)c3O)C(=O)O[C@H]2[C@H](OC(=O)c2cc(O)c(O)c(O)c2)[C@H]1OC(=O)c1cc(O)c(O)c(O)c1)c1cc(O)c(O)c(O)c1` (stereo partly drawn) [Tellimagrandin II] showed an MIC [1] of 128 µg/mL, an MIC [2] of 128 µg/mL and an MIC [3] of 128 µg/mL. The “phenotype of bacteria in electron microscopy” value [4] was “unsmooth tooth surfaces”, the “OD (average OD value of the strain − ODc)” value ([5]; ODc 0.167) was 0.039 and the “Average OD value” ([5]; biofilm staining of strain) was 0.206. For the same compound, the “Absorbance 1” value ([5]; biofilm staining of strain, replicate 1) was 0.153, the “Absorbance 2” value ([5]; biofilm staining of strain, replicate 2) was 0.259 and the “Absorbance 3” value ([5]; biofilm staining of strain, replicate 3) was 0.167. For the same compound, the “Absorbance 4” value ([5]; biofilm staining of strain, replicate 4) was 0.246, the “Heme oxygenase-1 expression” value [6] was “significant increases” and the “DNA fragmentation, DNA ladder electrophoresis” value [7] was “DNA fragmentation occurred”.
